What was measured:
[1] = tested on: Accumulation of the NO metabolite, nitrite, BV-2 microglial cells; test: Nitrite (NO metabolite) accumulation in BV-2 microglial cells; type: cell-based, mouse; conditions: BV-2 cells, concentrations up to 50 μM
Description: FIG. 4 A-C are graphs of the cell-based activity of MW01-2-151WH in BV-2 microglial cells. MW01-2-151WH is a concentration-dependent and selective inhibitor of proinflammatory cytokine production by activated glia. […] (C) Accumulation of the NO metabolite, nitrite, was not inhibited at concentrations up to 50 μM.

[2] = tested on: Aβ-induced neuroinflammation and synaptic damage; test: Aβ1-42 ICV infusion mouse model, hippocampal endpoints; type: in vivo, C57B1/6 mice; conditions: mice infused ICV with Aβ1-42; […] per day i.p. for 14 days
Description: FIG. 3A-F are graphs of MW01-2-151WH suppression of Aβ-induced neuroinflammation and synaptic damage. Hippocampal sections or extracts from vehicle-infused mice (control), Aβ-infused mice injected with solvent, and Aβ-infused mice injected with MW01-2-151 WH were evaluated for neuroinflammation by measurement of the levels of the pro-inflammatory cytokines IL-1β (A), TNFα(B), and S100B (C), and the number of GFAP-positive astrocytes, (D) and F4/80-positive microglia, (E), and evaluated for synaptic damage by analysis of the levels of the postsynaptic density protein 95 (PSD-95) (F). Data are from one of two independent experiments, and are the mean±SEM for 4-5 mice per experimental group.
In vivo Assays. Aβ-42 infusions and treatment of C57B1/6 mice with MW01-2-151WH were performed as previously described. Briefly, oligomeric […] was infused ICV for 28 days with a micro-osmotic pump. At post-operative day 21 and continuing for 14 days thereafter, mice were injected intraperitoneally once daily with either MW01-2-151WH (2.5 mg/kg per day) or solvent control (10% DMSO in saline). At post-operative day 60, mice were perfused and sacrificed, and hippocampal endpoints measured as previously described. […]

liver, lungs, and kidney = test: Graded dose, acute toxicity assay (histology of liver, lung, kidney); type: in vivo; conditions: mice, oral gavage once daily for 3 days, up to 50 mg/kg
Description: Vehicle (panels A,C,E) or MW01-2-151 WH (panels B,D,F) was orally administered (gavage) to mice daily for three days at 50 mg/kg (20-fold greater than a therapeutic dose, described in Materials and Methods).
Graded dose, acute toxicity assays Vehicle (30% DMSO) or MW01-2-151WH (3.1, 12.5 or 50 mg/kg) in 0.5% carboxymethylcellulose was administered by oral gavage once daily for 3 days. On the 4th day, mice were anesthetized with pentobarbital, intubated and the lungs were inflated with an air containing syringe. The mice were perfused through the right ventricle and the lungs, liver and kidneys were then harvested and fixed in 4% paraformaldehyde for histology. Paraffin embedded hematoxylin & eosin stained sections of each organ were prepared by standard techniques.

[3] = tested on: TNFα production by BV-2 mouse microglial cells stimulated with LPS; test: LPS-induced TNFα production in BV-2 microglial cells; type: cell-based; conditions: BV-2 cells, LPS 100 ng/ml, 16 hrs, cell lysates, MSD assay
Description: (§1) BV-2 cells were treated with LPS (100 ng/ml) in the absence or presence of increasing concentrations of MW01-2-151WH or three structurally related analogs (MW01-3-202WH and MW01-3-173WH) for 16 hrs with levels of IL-1β and TNFα in cell lysates measured by the Meso-Scale Discovery electrochemiluminescent detection assay (See, e.g., Example 1, Materials and Methods). Data are the mean+/−SEM of triplicate determinations.
(§2) Biological investigations were done with compounds disclosed herein that were >95% homogenous as determined by HPLC/MS analysis. As part of a hierarchal, cell-based screening protocol, the compounds were screened for their ability to block IL-1β and TNFα production by BV-2 mouse microglial cells stimulated with LPS. The data for MWO1-2-1-151WH and the three structurally related analogs (MW01-3-202WH and MW01-3-173WH,) is shown (See, e.g., FIG. 2). Derivative groups that may be used to modify the compounds of the present invention can be found in U.S. Patent Application No. 20030176437 (herein incorporated by reference in its entirety for all purposes).
(§3) Cell Culture Assays. […] EL-1/3 and TNFa levels in cell lysates were determined by electro-chemiluminescent detection in a Meso-Scale Discovery (MSD) kit, as per the manufacturer's instructions.

[4] = tested on: IL-1β production by BV-2 mouse microglial cells stimulated with LPS; test: LPS-induced IL-1β production in BV-2 microglial cells; type: cell-based; conditions: BV-2 cells, LPS 100 ng/ml, 16 hrs, cell lysates, MSD assay
Description: as §1, §2, §3

Compound	Accumulation of the NO metabolite, nitrite [1]	number of F4/80 positive microglia [2]	tissue toxicity (histology of liver, lung, kidney), acute (liver, lungs, and kidney)	tissue toxicity (histology of liver, lung, kidney), acute (liver, lungs, and kidney; listed as MW01-2-151 WH)	inhibition of LPS-induced TNFα production [3]	inhibition of LPS-induced TNFα production ([3]; listed as MW01-2-151 WH)	inhibition of LPS-induced IL-1β production [4]	inhibition of LPS-induced IL-1β production ([4]; listed as MW01-2-151 WH)
5,6-dihydro-3-(4-(pyrimidin-2-yl)piperazin-1-yl)benzo[h]cinnoline [MW01-2-151WH]	not inhibited	suppressed	No tissue toxicity was observed	no histological evidence of toxicity	Concentration-dependent inhibition	suppressed	Concentration-dependent inhibition	suppressed
c1ccc(N2CCN(c3cc4c(nn3)-c3ccccc3CC4)CC2)nc1 [MW01-3-202WH, 5,6-dihydro-3-(4-(pyridm-2-yl)piperazin-1-yl)benzo[h]cinnoline]					somewhat less suppressive activity		somewhat less suppressive activity	
5,6-dihydro-3-(4-phenylpiperazin-1-yl)benzo[h]cinnoline [MW01-3-173WH]					somewhat less suppressive activity		somewhat less suppressive activity	
